Measured values published in Sander's compilation of Henry's law constants.

Columns and labels:
[1] = Henry solubility constant Hcp at 293 K (mol/(m3 Pa))
[2] = Henry solubility constant Hcp at 298.15 K (mol/(m3 Pa))
[3] = reference: Munz and Roberts (1987)
[4] = reference: Pearson and McConnell (1975)
[5] = reference: Blatchley et al. (1992)
[6] = reference: Sheikheldin et al. (2001)
[7] = reference: De Maagd et al. (1998)

With `CCCC(=O)OO[N+](=O)[O-]` [nitro butaneperoxoate] the “Henry solubility constant Hcp at 293 K” value ([1]; reference: Kames and Schurath (1995)) was 0.023.

For `FC(F)(Cl)Cl` [dichlorodifluoromethane], the “Henry solubility constant Hcp” value [2, 3] was 3.1e-05, the “Henry solubility constant Hcp” value ([2]; reference: Park et al. (1982)) was 2.9e-05 and the “Henry solubility constant Hcp” value ([2]; reference: Reichl (1995)) was 3e-05. For the same compound, the “Henry solubility constant Hcp” value ([2]; reference: Scharlin and Battino (1994)) was 2.9e-05, the “Henry solubility constant Hcp” value ([2]; reference: Scharlin and Battino (1995)) was 2.9e-05 and the “Henry solubility constant Hcp” value ([2]; reference: Warner and Weiss (1985)) was 2.9e-05. For the same compound, the “Henry solubility constant Hcp at 293 K” value [1, 4] was 2.5e-05.

For `OCl` [hypochlorous acid], the “Henry solubility constant Hcp” value ([2]; reference: Hanson and Ravishankara (1991)) was 4.7, the “Henry solubility constant Hcp” value ([2]; reference: Holzwarth et al. (1984)) was 6 and the “Henry solubility constant Hcp” value ([2]; reference: Imagawa (1950)) was 12. For the same compound, the “Henry solubility constant Hcp” value ([2]; reference: Ourisson and Kastner (1939)) was 6.4, the “Henry solubility constant Hcp at 293 K” value [1, 5] was 9.1 and the “Henry solubility constant Hcp at 293 K” value ([1]; reference: McCoy et al. (1990)) was 9.

With `CCOP(=S)(OCC)Oc1nc(Cl)c(Cl)cc1Cl` [chlorpyrifos] the “Henry solubility constant Hcp at 293 K” value ([1]; reference: Rice et al. (1997b)) was 3.1.

With `OBr` [hypobromous acid] the “Henry solubility constant Hcp at 293 K” value [1, 5] was > 19 and the “Henry solubility constant Hcp at 293 K” value ([1]; reference: McCoy et al. (1990)) was 19.

For `OO` [hydrogen peroxide], the “Henry solubility constant Hcp” value ([2]; reference: Huang and Chen (2010)) was 1100, the “Henry solubility constant Hcp” value ([2]; reference: Hwang and Dasgupta (1985)) was 670 and the “Henry solubility constant Hcp” value ([2]; reference: Lind and Kok (1994)) was 990. For the same compound, the “Henry solubility constant Hcp” value ([2]; reference: O’Sullivan et al. (1996)) was 820, the “Henry solubility constant Hcp” value ([2]; reference: Rivera-Rios (2018)) was 1200 and the “Henry solubility constant Hcp” value ([2]; reference: Zhou and Lee (1992)) was 850. The “Henry solubility constant Hcp at 293 K” value ([1]; reference: Yoshizumi et al. (1984)) was 1400.

For `CCc1cccc(C)c1N(C(=O)CCl)C(C)COC` (stereo not drawn) [metolachlor], the “Henry solubility constant Hcp” value ([2]; reference: Feigenbrugel et al. (2004a)) was 210, the “Henry solubility constant Hcp” value ([2]; reference: Lau et al. (1995)) was 570 and the “Henry solubility constant Hcp at 293 K” value ([1]; reference: Rice et al. (1997b)) was 130.

With `Oc1ccc(Cl)cc1Cl` [2,4-dichlorophenol] the “Henry solubility constant Hcp” value ([2]; reference: Tabai et al. (1997)) was 6.6 and the “Henry solubility constant Hcp at 293 K” value [1, 6] was 3.4.

In the case of `Cc1ccc2ccccc2c1` [2-methylnaphthalene], the “Henry solubility constant Hcp at 293 K” value [1, 7] is reported as 0.022.

For `COP(=O)(OC)OC` [phosphoric acid, trimethyl ester], the “Henry solubility constant Hcp at 293 K” value ([1]; reference: Wolfenden and Williams (1983)) was 1400.

With `Cc1cccc(O)c1C` [1-hydroxy-2,3-dimethylbenzene] the “Henry solubility constant Hcp” value ([2]; reference: Dohnal and Fenclová (1995)) was 10 and the “Henry solubility constant Hcp at 293 K” value [1, 6] was 9.3.

With `Oc1ccccc1Cl` [2-hydroxychlorobenzene] the “Henry solubility constant Hcp” value ([2]; reference: Tabai et al. (1997)) was 3.6 and the “Henry solubility constant Hcp at 293 K” value [1, 6] was 1.5.

With `ClC(Cl)(Cl)Cl` [tetrachloromethane] the “Henry solubility constant Hcp” value ([2]; reference: Balls (1980)) was 0.00032, the “Henry solubility constant Hcp” value ([2]; reference: Bissonette et al. (1990)) was 0.00028 and the “Henry solubility constant Hcp” value ([2]; reference: Bullister and Wisegarver (1998)) was 0.00029. For the same compound, the “Henry solubility constant Hcp” value ([2]; reference: Chen et al. (2012)) was 0.0003, the “Henry solubility constant Hcp” value ([2]; reference: Gossett (1987)) was 0.00033 and the “Henry solubility constant Hcp” value ([2]; reference: Hartkopf and Karger (1973)) was 0.00037. For the same compound, the “Henry solubility constant Hcp” value ([2]; reference: Hunter-Smith et al. (1983)) was 0.00041, the “Henry solubility constant Hcp” value ([2]; reference: Lutsyk et al. (2005)) was 0.00034 and the “Henry solubility constant Hcp” value ([2]; reference: Munz and Roberts (1986)) was 0.00042. For the same compound, the “Henry solubility constant Hcp” value [2, 3] was 0.00033, the “Henry solubility constant Hcp” value ([2]; reference: Park et al. (1997)) was 0.00039 and the “Henry solubility constant Hcp” value ([2]; reference: Tancrède and Yanagisawa (1990)) was 0.00034. For the same compound, the “Henry solubility constant Hcp” value ([2]; reference: Warner et al. (1980)) was 0.00033, the “Henry solubility constant Hcp at 293 K” value ([1]; reference: Chiang et al. (1998)) was 0.0004 and the “Henry solubility constant Hcp at 293 K” value [1, 4] was 0.00045. The “Henry solubility constant Hcp at 293 K” value ([1]; reference: Yurteri et al. (1987)) was 0.00043.

For `c1ccc2c(c1)ccc1ccccc12` [phenanthrene], the “Henry solubility constant Hcp” value ([2]; reference: Alaee et al. (1996)) was 0.21, the “Henry solubility constant Hcp” value ([2]; reference: Bamford et al. (1999b)) was 0.16 and the “Henry solubility constant Hcp” value ([2]; reference: Mackay et al. (1979)) was 0.25. For the same compound, the “Henry solubility constant Hcp” value ([2]; reference: Odabasi et al. (2006)) was 0.27, the “Henry solubility constant Hcp” value ([2]; reference: Southworth (1979)) was 0.18 and the “Henry solubility constant Hcp at 293 K” value [1, 7] was 0.34.

For `CC#N` [ethanenitrile], the “Henry solubility constant Hcp” value ([2]; reference: Bebahani et al. (2002)) was 0.49, the “Henry solubility constant Hcp” value ([2]; reference: Benkelberg et al. (1995)) was 0.53 and the “Henry solubility constant Hcp” value ([2]; reference: Hamm et al. (1984)) was 0.53. The “Henry solubility constant Hcp” value ([2]; reference: Ji and Evans (2007)) was 0.52, the “Henry solubility constant Hcp” value ([2]; reference: Snider and Dawson (1985)) was 0.48 and the “Henry solubility constant Hcp at 293 K” value ([1]; reference: Yu (1992)) was 0.082.
